The source of these data is publication PMC4189421, “Induction of Oligodendrocyte Differentiation and In Vitro Myelination by Inhibition of Rho-Associated Kinase” (ASN NEURO, 2014).

For one experiment, the system named is mouse Nph-OPCs. The experiment is described as follows: Cell proliferation as number of Hoechst-labeled nuclei. It is filed as cell-based. Particulars: 1 µM; n = 3 in triplicate wells; DMSO: 522 ± 126. The text has this: To determine the effects of ROCK inhibition on OPCs, we developed a high-content image morphological analysis of OPC differentiation using mouse embryonic neural progenitor-derived OPCs (Nph-OPCs). Neural progenitors grow as nonadherent spheroids known as neurospheres (Nph; [Chojnacki & Weiss, 2008]; [Tropepe et al., 1999]), which are considered to be a mixed population of neural stem cells and progenitors of the CNS ([Rao, 1999]; [Zhou & Chiang, 1998]). These cells have been previously used in multiple published studies for the generation of high-yield, high-purity cultures of OPCs from rodents ([Calaora et al., 2001]; [[…] al., 1997]; [Pedraza et al., 2008]). After 24 hr of plating on PDL-coated tissue culture plastic, Nph-OPCs were treated as indicated with differentiation stimuli and further incubated for 72 hr. […] Four images per well were analyzed using a neurite outgrowth module (Molecular Devices, Sunnyvale, CA). We quantified the number of branches and total outgrowth per cell (Figure 1). […] Additionally, nuclear staining by Hoechst allowed the accurate association of branches and processes to their corresponding cell bodies and permitted quantification of total cell numbers in each well. […]

Experiment [1] concerns human pluripotent stem cell-derived OPCs (hSC-OPCs). Briefly: Human stem cell-derived OPC differentiation assay (O4 staining, ArrayScan). It is filed as cell-based. The following applies: for EC50: Homo sapiens. The method, then: Human oligodendrocytes were generated by a proprietary methodology of […] (Weizmann Science Park, Nes-Ziona, Israel; […].com). In brief, 5,000 human embryonic stem cell-derived OPCs (hES-OPCs) were seeded in each well of Matrigel and PDL-coated 96-well black μClear plates (Greiner, Frickenhausen, Germany). […] Twenty-four hours after seeding, medium was removed, and 200 μl of DIF fresh medium containing the compound of interest at a specific dilution (in 0.1% DMSO) was supplemented to the cells (first feeding). Total volume for each well was 200 μl. Four replicates were used for each dose of compound under study. After 48 hr, the media were replenished by removing 100 μl of media, and the same amount of fresh DIF media was added to the wells. Only at the first feeding, DIF media with 0.1% DMSO were used as control of the compound in medium containing 0.1% DMSO. Two experimental sets were conducted for the differentiation assay. On Day 21, live staining of oligodendrocytes was done by incubating the cells with O4 antibody (R&D Systems, Minneapolis, MN) for 20 min followed by detection with goat anti-mouse IgM-FITC (Chemicon) for additional 20 min. Cells were washed twice using DIF media. Immediately after, cells were fixed using 4% paraformaldehyde, and then washed with 1 × PBS, and 4',6-diamidino-2-phenylindole (DAPI; Sigma) was used for nuclear staining. […] Cellomics Neural profiling bioapplication was used for processing and analyzing the images. The 4-parameter Hill-Slope curve fittings were generated by GraphPad Prism software using the least squares fitting method, and EC50 values were calculated for the three major parameters of oligodendrocyte differentiation: number of differentiated oligodendrocytes, number of oligodendrocyte processes, and oligodendrocytes processes length (μm). The negative control groups of each experimental set were used for data normalization. We additionally studied the effect of ROCK inhibition in cultures of OPCs of human origin. […]

Another experiment has as its system rat mixed glial OPCs. Briefly: Myelin protein expression in rat mixed glia-derived OPCs (qPCR, MBP ELISA). In kind it is cell-based. The method, then:
Rat postnatal OPCs were obtained as described elsewhere according to the original procedure of [McCarthy and […] (1980)]. In brief, postnatal Day 1 rat pups were sacrificed, and cerebral cortices dissected and mechanically dissociated in medium composed of DMEM, 10% heat inactivated fetal bovine serum, and 5 μg/ml penicillin/streptomycin. Dissociated cells were plated and maintained in 75-cm^2 culture flasks for 10 days, replenishing with fresh media at Days 3 and 7. At Day 10, the flasks were shaken on a heated (37°C) shaker for 1 hr at 110 rpm to separate loosely attached microglial cells. The medium was replenished, and the cells incubated for the remainder of the day. To dislodge OPCs from the astrocyte monolayer, flasks were shaken overnight (210 rpm, 37°C). […] Cells were then plated on PDL-coated tissue culture plastic and treated with test compounds. […] The results are presented as specific mRNA expression relative to either β-actin or β-tubulin, used as internal controls as indicated. OPCs isolated from rat mixed glial cultures are known to mature readily in the absence of mitogens achieving a premyelinating OL stage as determined by the expression of the cell surface sulfatide O4, and the myelin proteins MBP and PLP among others ([Armstrong, 1998]; [Barbarese & Pfeiffer, 1981]; [[…], 1999]; [Jung-[…], Schumacher, Robel, & Baulieu, 1996]; [Konola, Tyler, Yamamura, & Lees, 1991]). They also display marked morphological changes, progressing from bipolar to multibranched cells generating membranous structures, and probably represent a later developmental stage than Nph-OPC. In rat mixed glial OPCs, we measured myelin protein expression at the RNA level by qPCR and MBP production by ELISA (MBL International, Woburn, MA).

Experiment [2] has as its system MYPT1 phosphorylation in mNph-OPC. The experiment is described as follows: MYPT1 phosphorylation (sandwich ELISA, western blot) as ROCK target engagement. The following applies: for Decrease of MYPT1 phosphorylation (ELISA): 4-hr mNph-OPC treatment.
Method: Tris-glycine acrylamide-bysacrylamide gradient gel electrophoresis was performed as follows: After washing the cells with ice-cold PBS, protein lysates were made by adding 50 µl of PhosphoSafe extraction reagent (EMD Millipore) supplemented with antiprotease cocktail (cOmplete; Roche, Branford, CT) onto each 100-mm^2 cell culture plate. After detaching the cells with the help of a cell scraper and disrupting cell membranes by sonication, the protein extracts were centrifuged (10,000 g, 10 min, 4℃) and the supernatants separated. Protein content was measured by the BCA protein determination method (Biorad, Hercules, CA), and 30 µg of total protein was mixed with SDS sample buffer (Laemmli) supplemented with 1% β-mercaptoethanol. After heating the samples to 70℃ for 10 min, they were loaded onto 4% to 20% acryl-bysacrylamide gradient gels, and electrophoresis was carried out at 120 volts with constant amperage.
Resolved proteins were then transferred onto nitrocellulose membranes using the iBlot methodology and device (Life technologies). […] Secondary detection was performed using Li-Cor IRDye secondary anti-mouse and anti-rabbit antibodies, and near-infrared signal was detected by Li-Cor’s Odyssey imaging system.
We assessed MYPT1 phosphorylation in Nph-OPCs treated for 4 hr with ROCK inhibitors in a dose-response experiment and using a sandwich ELISA as a measuring method (MBL International).

Like-named read-outs stand apart in the source and are kept apart here.

For `C[C@@H](N)[C@H]1CC[C@H](C(=O)Nc2ccncc2)CC1.Cl.Cl` [Y0503, trans-4-[(1 R)-1-aminoethyl]-N-4-pyridinylcyclohexanecarboxamide dihydrochloride], the “Number of Hoechst-labeled nuclei” value in the experiment with mouse Nph-OPCs is 625 ± 88 cells/well. In addition, the EC50 in experiment [1] (read-out: OLs processes count / well EC50) was determined as 0.0885 µM; in experiment [1] (read-out: OLs processes total length / well EC50), 0.138 µM. Moreover, the “Differentiation into O4-positive premyelinating stage” value in experiment [1] (hSC-OPCs treated 48 hr, 21 days culture) was “dose-response differentiation effect”. Moreover, the “Expression of MBP, PLP, and MOG mRNAs (qPCR)” value in the experiment on rat mixed glial OPCs (3 days maturation +4 days treatment, concentrations as low as 0.1 µM) is “significant increase”. The “MBP at the protein level (ELISA)” value in the experiment with rat mixed glial OPCs (treatments at 24 hr and 72 hr after plating) is recorded as “increased expression”. In addition, the “Decrease of MYPT1 phosphorylation (ELISA)” value was around 80% in experiment [2] (30 µM) and “more than 80%” in experiment [2] (100 µM). Also, the “Duration of downregulation of MYPT1 phosphorylation (western blot)” value in experiment [2] (control levels again after 24 hr of treatment) is on record as “over 12 hr”.
